Source: patent US20240391945A1, “NUCLEIC ACID SYNTHESIS METHOD USING SEGMENT-TYPE AMIDITE” (NITTO DENKO CORPORATION, priority 2020, published 2024)

Test: pKa values in water of the activators
Format: physicochemical
Details: for pKa: read-out: pKa in H2O

Row | pKa | Molecule | pKa in H2O
1 | 4.1 | c1ccc(CSc2nnn[nH]2)cc1 [BTT, 5-benzylthiotetrazole] | –
2 | 4.3 | CCSc1nnn[nH]1 [ETT, 5-ethylthio-1H-tetrazole] | –

More lines, now with the values behind:

Row | Molecule | pKa | pKa in H2O
3 | Cn1nnnc1S [Activator 1-Me-MCT, 5-mercapto-1-methyltetrazole] | 3.86 | –
4 | Sc1nnnn1-c1ccccc1 [Activator 1-Ph-MCT, 5-mercapto-1-phenyltetrazole] | 3.65 | –
5 | saccharin 1-methylimidazole [SMI] | – | 7
